For nine molecules, Papp A→B and bioavailability results are on record in US11603359B2, “Benzothiadiazepine compounds and their use as bile acid modulators” (Albireo AB, priority 2019, dated 2023).

A short description of data set [1]: Bidirectional permeability assay (Caco-2 cells). To be noted: human, pH 7.4, Caco-2 monolayers, absorptive direction (A2B), FaSSIF donor buffer. It is filed as in vitro ADME. Here is the method:
Caco-2 cells (Evotec) were seeded at a density of 70,000 cells/well in Millicell® 24-well cell culture insert plates and maintained in an incubator (37° C., 5% CO2, 95% RH) for 21 days with media change on alternate days.
Stock solutions (10 mM) of the test compounds, atenolol (low permeability marker), propranolol (high permeability marker) and digoxin (substrate for P-gp transport pathway) were prepared in dimethylsulfoxide (DMSO). An intermediate stock solution (1 mM) was prepared by diluting 10 μL of 10 mM master stock solution with 90 μL of neat DMSO. A working stock solution (10 μM) was prepared by diluting 50 μL of 1 mM with 4950 μL of FaSSIF buffer. Post addition of compounds to the FaSSIF, samples were subjected to sonication for 2 hours, and centrifuged at 4000 RPM for 30 minutes at 37° C. The 4 mL of resultant supernatant was directly used in the assay. The final DMSO concentration in the transport experiments was 1%.
On the day of assay, Caco-2 monolayers were washed twice with transport buffer (HBSS, pH 7.4) and pre-incubated for 30 min (37° C., 5% CO2, 95% RH) in an incubator. The electrical resistance of the monolayers was measured with a Millicell®—ERS system. Monolayers with trans-epithelial electrical resistance (TEER) values greater than 350 ohm·cm^2 were selected for the assay.
The assay was conducted in absorptive direction (A2B) and secretory (B2A) directions. Transport experiments were initiated by addition of transport assay buffer (FaSSIF buffer prepared in HBSS) consisting of compounds to the donor compartment (apical chamber A-B; basolateral chamber B-A) in duplicate (n=2) wells. Drug free HBSS buffer (pH 7.4) containing 1% bovine serum albumin (BSA) was introduced to the receiver (A-B-basolateral; B-A-Apical) compartments. The volumes of apical and basolateral compartments were 0.4 and 0.8 mL, respectively. After adding dosing solution, plates were incubated in an incubator for 120 minutes at 37° C. After 120 minutes, donor and receiver samples were collected and matrix matched (1:1, 30 μL study sample+30 μL blank buffer) with the opposite buffer. Dosing samples matrix matched (1:1, 30 μL study sample+30 μL blank buffer) with the opposite buffer. Samples were processed by adding acetonitrile containing internal standard (60 μL study sample+200 μL acetonitrile containing internal standard—Tolbutamide, 500 ng/mL). Samples were vortexed and centrifuged at 4000 rpm for 10 minutes. The obtained supernatant (100 μL) was diluted with 100 μL of water and transferred to fresh 96 well plates. The concentration of compounds in the samples was analyzed by liquid chromatography tandem mass spectrometry (LC-MS/MS) method using discovery grade bio-analytical method, as applicable.
The mean apparent permeability (Papp, ×10^−6 cm/sec) of the test compounds, atenolol, propranolol and digoxin were calculated as follows:
[formula] where dq/dt=rate of transport (rate of transport of compound in the receiver compartment), C0=initial concentration in the donor compartment, A=surface area of the effective filter membrane.

A short description of data set [2]: Bioavailability studies in rats. It is filed as in vivo. To be noted: male, Wistar, plasma, rat, 1 mg/kg intravenous vs 10 mg/kg oral. Here is the method:
(§1) Male mice (C57BL/6 or CD1) or Wistar rats of 8-9 weeks old were used. For each test compound, two groups of 3 animals each were used. One group was administered a single intravenous dose of 1 mg/kg (vehicle 100% DMSO) through the tail vein and the other group was administered a single oral dose of 10 mg/kg through gavage needle. The group that was administered an oral dose was fasted overnight. Blood samples were collected after 0.083, 0.25, 0.5, 1, 2, 4, 6, 8 and 24 hours following intravenous administration, and after 0.25, 0.5, 1, 2, 4, 6, 8 and 24 hours following oral administration. Blood samples were taken from saphenous vein. 0.2% EDTA was used as the anticoagulant. The samples were analyzed by a discovery grade bioanalytical method developed for the estimation of test compound in plasma, using an LC-MS/MS system.

Data set [3] can be described thus: Bioavailability studies in mice. It is filed as in vivo, mice (C57BL/6 or CD1). To be noted: male, mouse, plasma, 1 mg/kg intravenous vs 10 mg/kg oral. Here is the method:
as §1

With `CCCCC1(CC)CN(c2ccccc2)c2cc(N(C)C)c(OCCC(=O)O)cc2S(=O)(=O)N1` (single isomer, unassigned) [Example 12, 3-((3-butyl-7-(dimethylamino)-3-ethyl-1,1-dioxido-5-phenyl-2,3,4,5-tetrahydro-1,2,5-benzothiadiazepin-8-yl)oxy)propanoic acid], the Papp A→B at 120 min, 10 µM in data set [1] was 14.2 ×10⁻⁶ cm/s.
`CCCCC1(CC)CN(c2ccccc2)c2cc(SC)c(OCCC(=O)O)cc2S(=O)(=O)N1` (single isomer, unassigned) [Example 4, 3-((3-butyl-3-ethyl-7-(methylthio)-1,1-dioxido-5-phenyl-2,3,4,5-tetrahydro-1,2,5-benzothiadiazepin-8-yl)oxy)propanoic acid]: the bioavailability was 90% in data set [2] and 45% in data set [3] (CD1 mice). In data set [1], the Papp A→B at 120 min, 10 µM turned out to be 7.6 ×10⁻⁶ cm/s.
For `CCCCC1(CCCC)CN(c2ccccc2)c2cc(SC)c(OCC(O)C(=O)O)cc2S(=O)(=O)N1` (racemic) [Example 5, 3-((3,3-dibutyl-7-(methylthio)-1,1-dioxido-5-phenyl-2,3,4,5-tetrahydro-1,2,5-benzothiadiazepin-8-yl)oxy)-2-hydroxypropanoic acid], the Papp A→B at 120 min, 10 µM in data set [1] stood at 1 ×10⁻⁶ cm/s.
Still for that read-out and setting: to `CCCCC1(CC)CN(c2ccccc2)c2cc(N(C)C)c(OCCC(=O)O)cc2S(=O)(=O)N1` (racemic) [Example 11, 3-((3-Butyl-7-(dimethylamino)-3-ethyl-1,1-dioxido-5-phenyl-2,3,4,5-tetrahydro-1,2,5-benzothiadiazepin-8-yl)oxy)propanoic acid] belongs 13.1 ×10⁻⁶ cm/s; to `CCCCC1(CCCC)CN(c2ccc(O)cc2)c2cc(SC)c(OCCC(=O)O)cc2S(=O)(=O)N1` [Example 10, 3-((3,3-dibutyl-5-(4-hydroxyphenyl)-7-(methylthio)-1,1-dioxido-2,3,4,5-tetrahydro-1,2,5-benzothiadiazepin-8-yl)oxy)propanoic acid], 2.1 ×10⁻⁶ cm/s.
On to `CCCCC1(CCCC)CN(c2ccccc2)c2cc(SC)c(OCCC(=O)O)cc2S(=O)(=O)N1` [Example 1, 3-((3,3-Dibutyl-7-(methylthio)-1,1-dioxido-5-phenyl-2,3,4,5-tetrahydro-1,2,5-benzothiadiazepin-8-yl)oxy)propanoic acid], for which the bioavailability in data set [2] (Na^+ salt) is 98%; in data set [3] (C57BL/6 mice), 34%; in data set [3] (CD1 mice), 59%. This molecule displayed a Papp A→B at 120 min, 10 µM in data set [1] of 9.2 ×10⁻⁶ cm/s.
In the case of `CCCCC1(CCCC)CN(c2ccccc2)c2cc(SC)c(OCC(O)C(=O)O)cc2S(=O)(=O)N1` (single isomer, unassigned) [Example 7, 3-((3,3-dibutyl-7-(methylthio)-1,1-dioxido-5-phenyl-2,3,4,5-tetrahydro-1,2,5-benzothiadiazepin-8-yl)oxy)-2-hydroxypropanoic acid], the Papp A→B at 120 min, 10 µM in data set [1] was 0.4 ×10⁻⁶ cm/s.
On the same count and under the same terms, to `CCCCC1(CCCC)CN(c2ccccc2)c2cc(Cl)c(OCCC(=O)O)cc2S(=O)(=O)N1` [Example 9, 3-((3,3-dibutyl-7-chloro-1,1-dioxido-5-phenyl-2,3,4,5-tetrahydro-1,2,5-benzothiadiazepin-8-yl)oxy)propanoic acid] belongs 10 ×10⁻⁶ cm/s; to `CCCCC1(CCCC)CN(c2ccccc2)c2cc(SC)c(OC(C)CC(=O)O)cc2S(=O)(=O)N1` (centres unmarked) [Example 8, 3-((3,3-Dibutyl-7-(methylthio)-1,1-dioxido-5-phenyl-2,3,4,5-tetrahydro-1,2,5-benzothiadiazepin-8-yl)oxy)butanoic acid], 9.5 ×10⁻⁶ cm/s.
